{"source": "patent US8426369B2", "about": "“Prevention and treatment of colon cancer” (Rutgers, The State University of New Jersey, priority 2006, dated 2013)", "key": {"[1]": {"assay": "Body weight / overt toxicity during the ACF feeding study", "assay_type": "in vivo", "settings": "40 ppm in diet", "protocol": "Beginning at 5 weeks of age, all rats were fed the modified American Institute of Nutrition-76A (AIN-76A) diet. At 7 weeks of age, the animals were given s.c. injections of azoxymethane (AOM) (CAS no. 25843-45-2, Ash Stevens, Detroit, Mich.) once weekly for 2 weeks at a dose rate of 15 mg/kg body weight. One day after the second AOM injection, groups of animals (n=9 per group) were maintained on AIN-76A diet alone and AIN-76A diet containing 40 ppm pterostilbene. […] See, e.g., U.S. Application Publication No. US 2006-0057231 A1.\nOn the average, the animal consumed about 0.6 mg pterostilbene per day. All rats were weighed once weekly until termination of the study at 8 weeks after the second AOM treatment were sacrificed by CO2 asphyxiation. After laparotomy, the entire stomach, small intestine, and large intestine were resected. The organs were opened longitudinally, and the contents were flushed with normal saline."}, "[2]": {"system": "proliferating cell nuclear antigen (PCNA)", "assay": "PCNA immunostaining and labeling index of colon sections", "assay_type": "in vivo, male F344 rats", "settings": "40 ppm in diet, AOM-treated rats", "protocol": "Total number of ACF/colon and multiple aberrant crypts/focus were counted and the data were analyzed by Student's t-test. The PCNA labeling index (PI) was calculated as the [(number of positive cells)/(total number of cells)]×100 for each field which is averaged to get the PI for each section. The significance of treatment between the groups was analyzed by Student's t-Test.\nAnimals were treated as described in Example 27. Colon samples from each group were harvested at autopsy and fixed in 10% formalin for 24 hr. They were sectioned into 8 to 10 segments, paraffin embedded, and microtomed into 4 μm thick tissue sections. The slides were incubated overnight at room temperature with antibody to proliferating cell nuclear antigen (PCNA) (1:1000 diluted, BD Pharmingen, San Diego, Calif.), iNOS (1:100 diluted, Santa Cruz Biotechnology, Santa Cruz, Calif.), or mucin MUC2 (1:250 diluted, Santa Cruz Biotechnology, Santa Cruz, Calif.).\nThe slides were incubated with the biotinylated secondary antibody, and then with avidin/biotinylated peroxidase complex for 30 min at room temperature (Vector Labs, Burlingame, Calif.), and were incubated with […] (DAB) substrate. The sections were then counter-stained with Modified Harris Hematoxylin. The images were taken randomly at 400× using Zeiss AxioCam HRc camera fitted to a Zeiss Axioskope 2 Plus microscope. […]"}, "COX-2": {"system": "COX-2", "assay": "Cytokine-induced COX-2 protein expression in HT-29 cells (Western blot)", "assay_type": "cell-based, human", "protocol": "Human colon carcinoma cell lines HT-29 was obtained from the American Type Culture Collection (Manassas, Va.). The cells were maintained in Dulbecco's modification of Eagle's medium (DMEM) supplemented with 10% FBS and 1% penicillin/streptomycin at 37° C. and 5% CO2. The cytokine mixture, consisting of 10 ng/ml of TNF-α, IFN-γ and LPS, was used to induce iNOS and COX-2, unless otherwise mentioned. The cells were treated with the test compound either alone or in combination with cytokines for different time intervals and harvested for protein or RNA.\n(§1) The cell culture conditions and the reagents used in this example were described in Example 32. Whole cell extracts were collected after the various treatments and analyzed by western blotting. The protein samples were separated on 4-15% SDS-PAGE gels (Biorad, Hercules, Calif.) followed by transfer to a polyvinylidene fluoride membrane. The membranes were blocked with 5% milk in Tris buffer for 1 h and then incubated with the appropriate primary antibody solutions overnight at 4° C. The membranes were washed with Tris buffer, and incubated with horseradish peroxidase conjugated secondary antibody solutions for 1 h at room temperature.\n(§2) The protein bands were visualized using a chemiluminescence based kit from Amersham Biosciences (Buckinghamshire, UK). […]"}, "c-myc": {"system": "c-myc", "assay": "Western blot of c-myc in HT-29 cells", "assay_type": "cell-based, human", "settings": "9 h or 18 h, especially at 9 h", "protocol": "(§3) The cells were incubated with different concentrations of pterostilbene for 1, 2 and 3 days, and cell proliferation was estimated by measuring [^3H]thymidine incorporated into DNA. […] In order to evaluate whether pterostilbene potentiates cell cycle arrest or apoptosis in HT-29 cells, the effect of pterostilbene on the proteins regulating the cell cycle and/or apoptosis pathways was examined. Cells treated with pterostilbene for 9 h or 18 h were harvested and protein samples were analyzed by Western blotting (FIG. 8B).\nas §1, §2"}, "p27": {"system": "p27", "assay": "Western blot of p27 in HT-29 cells", "assay_type": "cell-based, human", "settings": "HT-29, data not shown", "protocol": "as §3, §1, §2"}, "phospho-STAT3": {"system": "phospho-STAT3", "assay": "Western blot of phospho-STAT3 in cytokine-treated HT-29 cells", "assay_type": "cell-based, human", "protocol": "as §1\n(§4) The protein bands were visualized using a chemiluminescence based kit from Amersham Biosciences (Buckinghamshire, UK). The primary antibodies against iNOS, COX-2, IκBα, cyclin D1, c-myc (Santa Cruz Bio-technology, Santa Cruz, Calif.), phospho-STAT3, phospho-Erk1/2, phospho-JNK1/2, phospho-p38, phospho-Akt, phospho-ATF2, phospho-Elk1, PARP (Cell Signaling Technology Inc., Beverly, Mass.) and actin (Sigma, St. Louis, Mo.) and secondary antibodies (Santa Cruz Biotechnology, Santa Cruz, Calif.) were used for probing the abundance of the target protein in the samples.\nThe significance of the JAK-STAT pathway in HT-29 cells was evaluated by probing for phospho-STAT3. Cytokines activated the STAT pathway, as shown by a strong induction of phospho-STAT3."}, "ERK1/2": {"system": "ERK1/2", "assay": "Western blot of phosphorylated ERK1/2 in cytokine-treated HT-29 cells", "assay_type": "cell-based, human", "protocol": "as §1, §4"}, "p-JNK1/2": {"system": "p-JNK1/2", "assay": "Western blot of p-JNK1/2 in cytokine-treated HT-29 cells", "assay_type": "cell-based, human", "protocol": "as §1, §4"}, "Elk-1": {"system": "Elk-1", "assay": "Western blot of cytokine-induced Elk-1 phosphorylation in HT-29 cells", "assay_type": "cell-based, human", "settings": "cytokine-treated HT-29", "protocol": "as §1\nas §4, with “samples. […]” for “samples.”"}, "B16M-F10 melanoma cells": {"system": "B16M-F10 melanoma cells", "settings": "intravenous administration to mice; cited from earlier work"}, "[3]": {"settings": "25 mg pterostilbene/kg diet, hypercholesterolemic hamsters; cited from earlier work"}}}
{"smiles": "COc1cc(/C=C/c2ccc(O)cc2)cc(OC)c1", "note": "[pterostilbene, (E)-4-(3,5-dimethoxystyryl)phenol]", "values": [{"measurement": "overt toxicity", "setting": "[1]", "value": "did not cause any overt toxicity"}, {"measurement": "body weights compared to control diet", "setting": "[1]; throughout the study", "value": "comparable"}, {"measurement": "PCNA positive cells (%) of colon tissue", "setting": "[2]", "value": "44.2±2.9", "unit": "%"}, {"measurement": "induction of COX-2 by the cytokine mixture", "setting": "COX-2; 30 μM, 9, 12 and 15 h", "value": "markedly blocked"}, {"measurement": "induction of COX-2 by the cytokine mixture, different concentrations", "setting": "COX-2; different concentrations", "value": "dose-dependent manner"}, {"measurement": "c-myc level", "setting": "c-myc", "value": "effective in reducing"}, {"measurement": "induction of p27", "setting": "p27", "value": "no induction"}, {"measurement": "level of induced phospho-STAT3", "setting": "phospho-STAT3", "value": "did not alter"}, {"measurement": "ERK1/2 activation by cytokines", "setting": "ERK1/2", "value": "did not block"}, {"measurement": "p-JNK1/2 protein levels", "setting": "p-JNK1/2", "value": "only a small effect"}, {"measurement": "cytokine-induced activation (phosphorylation) of Elk-1", "setting": "Elk-1", "value": "effective in inhibiting"}, {"measurement": "metastatic growth of B16M-F10 melanoma cells in the liver", "setting": "B16M-F10 melanoma cells", "value": "inhibited metastatic growth"}, {"measurement": "plasma cholesterol and lipoproteins", "setting": "[3]", "value": "lowered plasma cholesterol and lipoproteins"}]}
